Experimental data reported in the supplement of paper PMC4314810.
± gives the standard deviation of the averaged measurements.

tested on: MCF7; test: HRG-induced Akt activation (dPAkt = log2 pAkt/Akt HRG-stimulated minus log2 pAkt/Akt basal) (log2 ratio difference); higher = stronger HRG-induced Akt(T308) phosphorylation; conditions: miRNA mimic concentration 10 nM; time after transfection 72 h; heregulin 10 ng/ml; stimulation time 1 h
How it was run: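 MCF7 cells ([…], 96-well plates) were transfected with a library of 879 miRNA mimics at 10 nM final using Lipofectamine RNAiMax, in two biological replicates. After 72 h, cells were stimulated with 10 ng/ml heregulin-beta1 for 1 h or left unstimulated. They were fixed with 4% PFA, and phospho-Akt(T308) and total Akt were read by In-Cell Western on an Odyssey. Signals were corrected for column-wise fixation decay, and HRG-induced Akt activation is log2(pAkt/Akt) stimulated minus unstimulated, averaged over replicates.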

In order of rising “HRG-induced Akt activation (log2)” value:
1. UCAGUGCACUACAGAACUUUGU  0.519 ± 0.1
2. UCAGUGCAUCACAGAACUUUGU  0.53 ± 0.045
3. CAAAGUGCCUCCCUUUAGAGUG  0.831 ± 0.84
4. UACUGCAUCAGGAACUGAUUGGA  0.878 ± 0.64
5. GUCAUACACGGCUCUCCUCUCU  0.922 ± 0.81
6. CAACCUGGAGGACUCCAUGCUG  0.949 ± 0.19
7. UGGUAGACUAUGGAACGUAGG  0.953 ± 0.95
8. AAAAGUAAUUGCGGAUUUUGCC  0.977 ± 0.53
9. AUGUAGGGCUAAAAGCCAUGGG  1.01 ± 0.24
10. CUUCCUCGUCUGUCUGCCCC  1.02 ± 0.055
11. AGGGAUCGCGGGCGGGUGGCGGCCU  1.03 ± 0.13
12. UAUAGGGAUUGGAGCCGUGGCG  1.04 ± 0.064
13. UAACACUGUCUGGUAACGAUGU  1.04 ± 0.078
14. CUGUUGCCACUAACCUCAACCU  1.07 ± 0.11
15. CUGCGCAAGCUACUGCCUUGCU  1.07 ± 0.26
16. AGAGAAGAAGAUCAGCCUGCA  1.08 ± 0.5
17. CAAAGUUUAAGAUCCUUGAAGU  1.08 ± 0.53
18. UAAGUGCUUCCAUGUUUUAGUAG  1.08 ± 0.1
19. UGAGGUAGGAGGUUGUAUAGUU  1.11 ± 0.083
20. UGAAGGUCUACUGUGUGCCAGG  1.11 ± 0.052
21. AGUUUUGCAGGUUUGCAUUUCA  1.13 ± 0.15
22. AAGUUCUGUUAUACACUCAGGC  1.154 ± 0.01
23. CAUGCCUUGAGUGUAGGACCGU  1.16 ± 0.11
24. GUGGCUGCACUCACUUCCUUC  1.16 ± 0.076
25. CGUGCCACCCUUUUCCCCAG  1.18 ± 0.34
26. CGGAUGAGCAAAGAAAGUGGUU  1.19 ± 0.07
27. AAAAUGGUUCCCUUUAGAGUGU  1.21 ± 0.31
28. AAUAUUAUACAGUCAACCUCU  1.21 ± 0.51
29. UGAGGUAGUAGAUUGUAUAGUU  1.22 ± 0.24
30. GUGGGUACGGCCCAGUGGGGGG  1.24 ± 0.18
31. CUAGGUAUGGUCCCAGGGAUCC  1.26 ± 0.24
32. UGGGUUCCUGGCAUGCUGAUUU  1.27 ± 0.13
33. CCUAUUCUUGAUUACUUGUUUC  1.273 ± 0.0028
34. UCACAAGUCAGGCUCUUGGGAC  1.27 ± 0.15
35. UUGGGACAUACUUAUGCUAAA  1.28 ± 0.2
36. UACUUGGAAAGGCAUCAGUUG  1.28 ± 0.25
37. ACUUCACCUGGUCCACUAGCCGU  1.3 ± 0.29
38. UAUUGCACUUGUCCCGGCCUGU  1.3 ± 0.12
39. GUGGGGGAGAGGCUGUC  1.33 ± 0.25
40. UCCCUGAGACCCUAACUUGUGA  1.35 ± 0.79
41. ACGGGUUAGGCUCUUGGGAGCU  1.38 ± 0.043
42. ACUUUAACAUGGAGGCACUUGC  1.41 ± 0.029
43. AGGUUGACAUACGUUUCCC  1.43 ± 0.13
44. AUGACCUAUGAAUUGACAGAC  1.43 ± 0.063
45. UUACAGUUGUUCAACCAGUUACU  1.44 ± 0.019
46. CGAAUCAUUAUUUGCUGCUCUA  1.44 ± 0.25
47. AUCGUGCAUCCUUUUAGAGUGU  1.47 ± 0.099
48. UGUCUUACUCCCUCAGGCACAU  1.47 ± 0.054
49. UCGCCUCCUCCUCUCCC  1.47 ± 0.17
50. AAUGACACGAUCACUCCCGUUGA  1.48 ± 0.35
51. UGCAACGAACCUGAGCCACUGA  1.49 ± 0.14
52. CAACAAAUCCCAGUCUACCUAA  1.51 ± 0.076
53. CAUAAAGUAGAAAGCACUACU  1.54 ± 0.062
54. CCCAGAUAAUGGCACUCUCAA  1.55 ± 0.12
55. UCUCUGGGCCUGUGUCUUAGGC  1.55 ± 0.3
56. UAUGUGCCUUUGGACUACAUCG  1.56 ± 0.13
57. GGGCGACAAAGCAAGACUCUUUCUU  1.56 ± 0.061
58. UCUAGGCUGGUACUGCUGA  1.57 ± 0.13
59. UACAGUACUGUGAUAACUGAA  1.57 ± 0.14
60. UAAAGAGCCCUGUGGAGACA  1.58 ± 0.083
61. AAAAGUAUUUGCGGGUUUUGUC  1.58 ± 0.098
62. UUUAACAUGGGGGUACCUGCUG  1.59 ± 0.42
63. AGGUUGGGAUCGGUUGCAAUGCU  1.59 ± 0.021
64. CAAGCUUGUAUCUAUAGGUAUG  1.59 ± 0.17
65. AAGCCCUUACCCCAAAAAGCAU  1.6 ± 0.26
66. CCUGGAAACACUGAGGUUGUG  1.61 ± 0.12
67. UUCUCGAGGAAAGAAGCACUUUC  1.61 ± 0.16
68. GCUGCGCUUGGAUUUCGUCCCC  1.62 ± 0.098
69. GAAAGCGCUUCCCUUUGCUGGA  1.63 ± 0.082
70. AUCAUAGAGGAAAAUCCAUGUU  1.64 ± 1
71. GCAGUCCAUGGGCAUAUACAC  1.66 ± 0.12
72. CACGCUCAUGCACACACCCACA  1.68 ± 0.14
73. AACAUUCAACGCUGUCGGUGAGU  1.71 ± 0.13
74. AGCUACAUUGUCUGCUGGGUUUC  1.72 ± 0.17
75. CUGAAGUGAUGUGUAACUGAUCAG  1.727 ± 0.0053
76. AAGCCCUUACCCCAAAAAGUAU  1.73 ± 0.12
77. GGGGAGCUGUGGAAGCAGUA  1.73 ± 0.21
78. UGGUGGGCCGCAGAACAUGUGC  1.74 ± 0.035
79. UCCUGUACUGAGCUGCCCCGAG  1.79 ± 0.1
80. UCCCUGUCCUCCAGGAGCUCACG  1.79 ± 0.13
81. AUGGGUGAAUUUGUAGAAGGAU  1.81 ± 0.12
82. UUGAGAAUGAUGAAUCAUUAGG  1.82 ± 0.5
83. UGAGGGGCAGAGAGCGAGACUUU  1.83 ± 0.26
84. UAGGUAGUUUCAUGUUGUUGGG  1.86 ± 0.1
85. GAUGAUGAUGGCAGCAAAUUCUGAAA  1.87 ± 0.33
86. AGUGAAUGAUGGGUUCUGACC  1.879 ± 0.002
87. AGAGGUAUAGGGCAUGGGAA  1.88 ± 0.23
88. AGGCAGUGUAUUGUUAGCUGGC  1.91 ± 0.036
89. AAUGCACCCGGGCAAGGAUUCU  1.91 ± 0.056
90. UCUCACACAGAAAUCGCACCCGU  1.92 ± 0.12
91. ACGGUGCUGGAUGUGGCCUUU  1.92 ± 0.082
92. GUGAACGGGCGCCAUCCCGAGG  1.9231 ± 0.00011
93. CAUCCCUUGCAUGGUGGAGGG  1.97 ± 0.25
94. CACUGGCUCCUUUCUGGGUAGA  2.02 ± 0.43
95. AUAUAUGAUGACUUAGCUUUU  2.03 ± 0.027
96. UGGAAUGUAAGGAAGUGUGUGG  2.05 ± 0.28
97. UUUGAGGCUACAGUGAGAUGUG  2.06 ± 0.034
98. CUCUUGAGGGAAGCACUUUCUGU  2.16 ± 0.45
99. UGAGCCCUGUCCUCCCGCAG  2.24 ± 0.29
100. UGUCUGCCCGCAUGCCUGCCUCU  2.32 ± 0.13
101. CUGGUUUCACAUGGUGGCUUAG  2.33 ± 0.15
102. ACUCGGCGUGGCGUCGGUCGUG  2.34 ± 0.17
103. CCUCCUGCCCUCCUUGCUGU  2.4 ± 0.096
104. AGGCGGAGACUUGGGCAAUUG  2.43 ± 0.29
105. UGAGAACUGAAUUCCAUGGGUU  2.55 ± 0.058
106. CGCGGGUGCUUACUGACCCUU  3.25 ± 0.033
